Experimental findings from ChEMBL document CHEMBL5360520, “Catalytic covalent inhibition of cyclooxygenase-1 by a biomimetic acyltransferase” (Bioorg Med Chem, 2022) are described below.

Active and inactive are the calls of the source. The rule behind the calls is not given here.

What is called inhibition is the change of the read-out against control, counted positive when it falls. Broadly, the IC50 is the concentration needed to halve the response being measured.

Data set [1] deals with T1, Prostaglandin G/H synthase 1 (Ovis aries) (UniProt P05979).
T1 sequence (whole entry): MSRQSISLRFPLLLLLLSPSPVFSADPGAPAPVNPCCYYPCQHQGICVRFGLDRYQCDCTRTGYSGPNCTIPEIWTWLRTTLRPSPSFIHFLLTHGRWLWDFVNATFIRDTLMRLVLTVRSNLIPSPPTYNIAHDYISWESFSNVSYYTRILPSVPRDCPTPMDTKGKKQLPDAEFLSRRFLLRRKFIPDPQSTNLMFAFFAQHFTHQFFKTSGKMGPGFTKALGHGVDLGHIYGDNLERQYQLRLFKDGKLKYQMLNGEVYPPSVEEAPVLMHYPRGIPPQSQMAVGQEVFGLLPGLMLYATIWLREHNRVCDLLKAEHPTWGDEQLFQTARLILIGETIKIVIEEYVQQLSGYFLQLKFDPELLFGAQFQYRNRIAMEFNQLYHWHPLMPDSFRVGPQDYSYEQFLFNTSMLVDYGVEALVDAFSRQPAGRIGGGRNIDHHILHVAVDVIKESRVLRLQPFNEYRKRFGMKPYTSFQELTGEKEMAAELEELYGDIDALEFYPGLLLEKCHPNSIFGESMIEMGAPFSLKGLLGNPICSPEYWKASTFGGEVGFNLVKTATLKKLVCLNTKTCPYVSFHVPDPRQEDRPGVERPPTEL
The experiment in a line: Covalent inhibition of recombinant ovine COX1 using arachidonic acid as substrate assessed as inhibition rate preincubated with compound for 10 to 40 mins followed by substrate addition and measured after 10 mins by LC-MS/MS analysis. Conditions: time 20-50 min.

Another data set concerns A549. Kind of data set: Cytotoxicity against human A549 cells assessed as reduction in cell viability at 15 uM by MTT assay. Format: toxicity, cell-based. Conditions: a549, 15 µM.
Data set [2] has as its target T1, Prostaglandin G/H synthase 1 (Ovis aries). Kind of data set: Inhibition of recombinant ovine COX1 using arachidonic acid as substrate assessed as Kinact/Ki ratio preincubated with compound for 10 to 40 mins followed by substrate addition and measured after 10 mins by LC-MS/MS analysis. Conditions: time 20-50 min.
Data set [3] shares this target. Kind of data set: Covalent inhibition of recombinant ovine COX-1 using arachidonic acid as substrate assessed as reduction in PGE2 production preincubated with compound followed by substrate addition and measured after 10 mins by LC-MS/MS analysis. The settings on record: time 70-310 min, TDE = time-dependent effect.
Data set [4] shares this target. The experiment in a line: Covalent inhibition of recombinant ovine COX1 using arachidonic acid as substrate assessed as acetylation at Ser530 residues preincubated with compound followed by substrate addition and measured after 10 mins by LC-MS/MS analysis.
Data set [5] concerns the target T2, Prostaglandin G/H synthase 1 (Ovis aries, UniProt P05979).
T2 sequence (P05979 whole entry): T1 sequence (whole entry)
The experiment in a line: Non-covalent binding affinity to recombinant ovine COX1 using arachidonic acid as substrate assessed as binding constant preincubated with compound for 10 to 40 mins followed by substrate addition and measured after 10 mins by LC-MS/MS analysis.

The target in data set [6] is T1, Prostaglandin G/H synthase 1 (Ovis aries). The experiment in a line: Covalent inhibition of recombinant ovine COX1 using arachidonic acid as substrate assessed as reduction in PGE2 production preincubated with compound for 6 hrs followed by substrate addition for 10 mins and measured after 8 hrs of dialysis by LC-MS/MS analysis. Conditions: time 370.0 min.
Data set [7] deals with T2, Prostaglandin G/H synthase 1. Kind of data set: Covalent inhibition of recombinant ovine COX-1 using arachidonic acid as substrate assessed as reduction in PGE2 production preincubated with compound for 1 hrs followed by substrate addition and measured after 10 mins by LC-MS/MS analysis.
Data set [8] addresses Prostaglandin G/H synthase 1 (Homo sapiens) (UniProt P23219). The experiment in a line: Covalent inhibition of COX1 in LPS-treated human A549 cells using arachidonic acid as substrate assessed as reduction in PGE2 production at 40 uM measured every 24 hrs by LC-MS/MS analysis. The settings on record: time <= 48.0 hrs, TDE = time-dependent effect.
For data set [9] the target is unchanged. The experiment in a line: Covalent inhibition of COX1 in LPS-treated human A549 cells using arachidonic acid as substrate assessed as reduction in PGE2 production at 40 uM preincubated with compound for 12 hrs followed by washout and measured after 20 mins of substrate addition by LC-MS/MS analysis.
Data set [10] deals with T2, Prostaglandin G/H synthase 1. Kind of data set: Covalent inhibition of recombinant ovine COX-1 using arachidonic acid as substrate assessed as reduction in PGE2 production preincubated with compound for 5 hrs followed by substrate addition and measured after 10 mins by LC-MS/MS analysis.
Data set [11] concerns the target Prostaglandin G/H synthase 1 (Homo sapiens) (UniProt P23219). Kind of data set: Covalent inhibition of COX1 in LPS-treated human A549 cells using arachidonic acid as substrate assessed as reduction in PGE2 production at 15 uM preincubated with compound for 24 hrs followed by washout and measured after 20 mins of substrate addition by LC-MS/MS analysis.
For data set [12], the target named is T1, Prostaglandin G/H synthase 1 (Ovis aries). The experiment in a line: Covalent inhibition of recombinant ovine COX1 using arachidonic acid as substrate assessed as reduction in PGE2 production at 10 uM preincubated with compound for 16 hrs followed by substrate addition for 10 mins in the presence of AcSNAC and measured after 16 hrs of dialysis by LC-MS/MS analysis. The settings on record: time 970.0 min.

The target is the same in data set [13]. The experiment in a line: Covalent inhibition of recombinant ovine COX1 using arachidonic acid as substrate assessed as reduction in PGE2 production at 40 uM preincubated with compound for […] followed by substrate addition and measured after 10 mins in the presence of AcSNAC by LC-MS/MS analysis. The settings on record: time 370.0 min.
For data set [14] the target is unchanged. Kind of data set: Covalent inhibition of recombinant ovine COX1 using arachidonic acid as substrate assessed as residual activity preincubated with compound for 6 hrs followed by substrate addition for 10 mins and measured after 8 hrs of dialysis by LC-MS/MS analysis relative to control. Conditions: time 370.0 min.
Data set [15] has the same target. The experiment in a line: Covalent inhibition of recombinant ovine COX1 using arachidonic acid as substrate assessed as reduction in PGE2 production preincubated with compound followed by substrate addition and measured after 10 mins by LC-MS/MS analysis relative to control.

For `CCCCC#CCNC(=O)c1ccccc1SC(C)=O`, in [1], the Kinact is 2.2 10^-2/min. Also, the Activity entry in the data set on A549 is on record as “Non-Toxic”. Further, the Ratio in [2] was 2.58 10^-3/min/µM. Also, in [3], the inhibition result is “Tde”. Also, the inhibition result in [4] and in data set [6] was “Active” throughout. Also, the Ki in [5] stood at 8.9 µM.
Regarding `CCCCCCNC(=O)c1ccccc1SC(C)=O`, the concentration for half-maximal inhibition (IC50) in data set [7] is 50 µM; in data set [10], 10 µM. Also, the Kinact in [1] is 2.1 10^-2/min. Also, in data set [8], the inhibition result was “Tde”. For the same compound, the inhibition result in [9] and in data set [4] was “Active” in each case. For the same compound, in [2], the Ratio is 0.65 10^-3/min/µM. Also, the Ki in [5] turned out to be 33.9 µM.
For `CC(=O)Oc1ccccc1C(=O)O` [ASPIRIN], the Activity result in the data set on A549 is “Non-Toxic”. Further, in [3], the inhibition result was “Tde”.
In the case of `C#CCNC(=O)c1ccccc1SC(C)=O`, in [1], the Kinact was 2.5 10^-2/min. In [2], the Ratio is 2.4 10^-3/min/µM. Moreover, in [3], the inhibition entry was “Tde”. Further, the Ki in [5] amounted to 15.2 µM.
In the case of `CCCCC#CCNC(=O)c1ccccc1S`, in data set [11], the inhibition worked out at 60%. For the same compound, the inhibition result in [12] was “Active”. Also, the Activity result with A549 is “Non-Toxic”.
Consider `CCCCCCNC(=O)c1ccccc1S`, for which the inhibition result in data set [9] and in data set [13] was “Active” each time.
As to `CCCCC#CCNC(=O)c1ccccc1SC`, the Activity in [14] was 83%. Further, the inhibition in [15] worked out at 97%.
